One series addresses T1, GABAB receptors (Rattus norvegicus, UniProt Q9Z0U4).
T1 construct: Rat brain synaptosomes are used as a source of GABAB receptors; from tissue; host or cells: rat brain synaptosomes
In words: GABAB Receptor Binding Assay ([3H]GABA, rat brain synaptosomes). On the procedure:
GABAB Receptor Binding Assay
The percentage inhibition of GABA binding to GABAB receptors is measured by tritiated GABA ([^3 H]GABA) determination of the degree of binding by scintillation counting. Rat brain synaptosomes are used as a source of GABAB receptors. An incubation medium is prepared from the following: 20 μg/mL of the compound to be tested as a solution in 1% DMSO/water; 5 nM [^3 H]GABA; 50 mM Tris buffer (pH 7.5); and 2.5 mM CaCl2. The medium also contains 40 μM isoguvacine to selectively block binding to GABAA receptors. The synaptosome (200 μg/mL) is added to the incubation medium and incubated for 30 minutes at 20° C. The incubation is terminated by filtration and counted to determine the percentage inhibition of [^3 H]-GABA binding. The results are reported as IC50 values for those compounds inhibiting [^3 H]-GABA binding by >50%.

The target of series [1] is prejunctional GABAB receptors (Cavia porcellus, UniProt A0A286X9P6). In words: In Vitro Assay (guinea pig trachea, reversal of baclofen inhibition of EFS-induced contractions). The format is cell-based, guinea pig (male Hartley). The following applies: 30 μmol/L baclofen; for IC30: guinea pig trachea. On the procedure:
Male Hartley guinea pigs (450-650 g) are sacrificed by stunning and the trachea removed proximal to the carina and cut into 5 mm segments. The segments are attached to isometric force displacement transducers (Model FT03: Grass Instruments) and suspended in 15 mL organ baths filled with low Ca^2+ (0.6 mmol/L) Tyrode's buffer solution (pH 7.4) supplemented with 5.6 mmol/L glucose, 30 μmol/L choline and 2 μmol/L indomethacin. The solution is bubbled with a mixture of 95% O2 +5% CO2 and maintained at 37° C. The tracheal segments are allowed to equilibrate for 90 minutes under a resting tension of 0.5 g.
Platinum electrodes are placed on either side of the trachea and electrical field stimulation (EFS) (20 V, 8 Hz, 0.5 ms pulse for 5 s) was generated each minute from an electrical stimulator (Model S-88: Grass Instruments) and delivered to the electrodes through a stimulus distributor (Buxco Electronics). The stimulation parameters are chosen as appropriate for producing cholinergic contractions of the trachea that are sensitive to the inhibitory effects of compounds acting at prejunctional GABAB receptors. Contractile responses were recorded on a polygraph (Harvard Apparatus). The compound to be tested is added to the bath 10 min. before addition of 30 μmol/L baclofen. The effect of baclofen treatment in the absence or in the presence of the compound to be tested is expressed as a percent inhibition of EFS-induced contractions.

The next series has as its system GABAB. The note with it: literature, in words; cited from earlier work.
Series [2] deals with Respiratory Depressant Effect of Baclofen. Briefly: Inhibition of Respiratory Depressant Effect of Baclofen. The format is in vivo, guinea pig. The following applies: baclofen alone (3 mg/kg, sc). As to the method: (§1) Animal Model for Respiratory Depression:
Place unanesthetized guinea pigs in a head-out plethysmograph and expose to a CO2 enriched gas mixture (10% CO2, 21% O2, 69% N2) for 10 min., (see Danko, et al., J. Pharm. Methods, 19, 165-173 (1988)). Plethysmograph pressure is detected with a transducer connected to a chart recorder. Minute ventilation is calculated as the product of tidal volume and respiratory frequency. The compound to be tested is administered orally, subcutaneously (sc), intraperitoneally (ip) or via an intracerebroventricular route (icv). Baclofen (3 mg/kg, sc) was given 30 min before exposure to the CO2 enriched gas. […] A 40 or 30 min. preteratment is used for the subcutaneous and intraperitoneal routes, respectively. The vehicle for oral, sc or ip administration is saline. For icv administration, single icv cannulae are placed in the lateral ventricle of anesthetized guinea pigs, (see McLeod, et al., Eur. J. Pharmacol., 209, 141-142 (1988)). The animals are allowed to recover approximately one week prior to use for ventilation experiments. The vehicle for icv administration is artificial cerebrospinal fluid (CSF).

Series [3] has the same test system. Briefly: Reversal of the Respiratory Depressant Effect of Baclofen via icv Administration. The format is in vivo, guinea pig. The following applies: baclofen plus vehicle. On the procedure:
as §1
Place unanesthetized guinea pigs in a head-out plethysmograph and expose to a CO2 enriched gas mixture (10% CO2, 21% O2, 69% N2) for 10 min., (see Danko, et al., J. Pharm. Methods, 19, 165-173 (1988)). Plethysmograph pressure is detected with a transducer connected to a chart recorder. Minute ventilation is calculated as the product of tidal volume and respiratory frequency. The compound to be tested is administered orally, subcutaneously (sc), intraperitoneally (ip) or via an intracerebroventricular route (icv). Baclofen (3 mg/kg, sc) was given 30 min before exposure to the CO2 enriched gas. When given by the oral route, the compounds is administered 1, 3, 5 or 7 h before exposure to CO2 enriched gas. A 40 or 30 min. preteratment is used for the subcutaneous and intraperitoneal routes, respectively. The vehicle for oral, sc or ip administration is saline. For icv administration, single icv cannulae are placed in the lateral ventricle of anesthetized guinea pigs, (see McLeod, et al., Eur. J. Pharmacol., 209, 141-142 (1988)). The animals are allowed to recover approximately one week prior to use for ventilation experiments. The vehicle for icv administration is artificial cerebrospinal fluid (CSF).

The conditions of series [4]: literature (Olpe, et al), in words; cited from earlier work.
[5] abbreviates: 5 nM [3H]GABA, rat brain synaptosomes, 20° C., 30 min.

As usually defined, the IC50 is the concentration needed to halve the response being measured. A word on the inhibition: it is the share of the control response that was lost under treatment. For orientation: IC30 means the concentration needed for an effect of 30%.

T1 sequence (Q9Z0U4 17-960 limits assumed): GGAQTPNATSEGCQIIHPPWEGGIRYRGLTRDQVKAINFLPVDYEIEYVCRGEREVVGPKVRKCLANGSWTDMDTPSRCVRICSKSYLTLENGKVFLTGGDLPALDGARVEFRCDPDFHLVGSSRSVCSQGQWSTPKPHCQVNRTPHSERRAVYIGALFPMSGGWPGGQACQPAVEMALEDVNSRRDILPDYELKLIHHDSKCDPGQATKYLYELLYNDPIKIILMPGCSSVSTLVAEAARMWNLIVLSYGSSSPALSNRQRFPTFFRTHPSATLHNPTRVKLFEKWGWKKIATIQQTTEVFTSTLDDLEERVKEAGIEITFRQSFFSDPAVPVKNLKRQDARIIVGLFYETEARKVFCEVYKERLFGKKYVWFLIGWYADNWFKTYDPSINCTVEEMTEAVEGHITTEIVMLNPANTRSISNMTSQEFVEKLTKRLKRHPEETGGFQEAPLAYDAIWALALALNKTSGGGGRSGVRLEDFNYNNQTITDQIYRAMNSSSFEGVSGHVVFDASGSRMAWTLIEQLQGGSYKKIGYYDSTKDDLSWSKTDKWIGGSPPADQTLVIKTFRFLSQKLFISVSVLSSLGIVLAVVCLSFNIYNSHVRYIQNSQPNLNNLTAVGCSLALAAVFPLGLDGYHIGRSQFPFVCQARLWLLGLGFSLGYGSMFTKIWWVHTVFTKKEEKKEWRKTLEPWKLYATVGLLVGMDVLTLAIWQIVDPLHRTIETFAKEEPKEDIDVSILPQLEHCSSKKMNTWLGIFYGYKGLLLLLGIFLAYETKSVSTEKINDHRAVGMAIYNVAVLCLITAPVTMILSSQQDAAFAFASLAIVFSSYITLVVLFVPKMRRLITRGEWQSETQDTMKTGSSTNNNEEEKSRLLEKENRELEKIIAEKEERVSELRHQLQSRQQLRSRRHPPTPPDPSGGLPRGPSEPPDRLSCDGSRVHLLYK
T1 sequence (O88871 41-940 partner): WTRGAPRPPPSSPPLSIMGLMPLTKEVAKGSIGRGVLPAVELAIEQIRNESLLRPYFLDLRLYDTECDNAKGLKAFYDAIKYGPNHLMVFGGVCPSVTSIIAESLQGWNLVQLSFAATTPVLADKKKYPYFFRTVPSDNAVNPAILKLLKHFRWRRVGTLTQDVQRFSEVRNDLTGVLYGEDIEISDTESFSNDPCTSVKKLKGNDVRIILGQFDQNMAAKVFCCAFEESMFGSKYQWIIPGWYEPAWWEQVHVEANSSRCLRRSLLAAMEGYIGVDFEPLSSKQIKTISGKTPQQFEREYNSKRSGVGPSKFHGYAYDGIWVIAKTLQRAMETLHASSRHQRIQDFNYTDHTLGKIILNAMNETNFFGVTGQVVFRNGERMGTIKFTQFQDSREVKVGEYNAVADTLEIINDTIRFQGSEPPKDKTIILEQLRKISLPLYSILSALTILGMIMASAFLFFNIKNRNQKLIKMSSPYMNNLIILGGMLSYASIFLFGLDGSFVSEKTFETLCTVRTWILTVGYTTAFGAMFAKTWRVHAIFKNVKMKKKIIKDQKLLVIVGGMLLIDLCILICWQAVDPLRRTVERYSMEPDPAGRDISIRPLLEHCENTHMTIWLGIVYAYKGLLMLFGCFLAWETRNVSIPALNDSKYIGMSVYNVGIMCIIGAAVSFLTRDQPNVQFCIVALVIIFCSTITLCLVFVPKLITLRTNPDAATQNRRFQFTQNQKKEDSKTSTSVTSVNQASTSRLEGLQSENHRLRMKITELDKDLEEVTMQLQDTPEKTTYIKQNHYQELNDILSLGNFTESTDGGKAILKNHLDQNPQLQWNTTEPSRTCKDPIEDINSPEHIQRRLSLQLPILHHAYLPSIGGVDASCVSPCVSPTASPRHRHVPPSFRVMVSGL
Chain of prejunctional GABAB receptors (A0A286X9P6 30-844): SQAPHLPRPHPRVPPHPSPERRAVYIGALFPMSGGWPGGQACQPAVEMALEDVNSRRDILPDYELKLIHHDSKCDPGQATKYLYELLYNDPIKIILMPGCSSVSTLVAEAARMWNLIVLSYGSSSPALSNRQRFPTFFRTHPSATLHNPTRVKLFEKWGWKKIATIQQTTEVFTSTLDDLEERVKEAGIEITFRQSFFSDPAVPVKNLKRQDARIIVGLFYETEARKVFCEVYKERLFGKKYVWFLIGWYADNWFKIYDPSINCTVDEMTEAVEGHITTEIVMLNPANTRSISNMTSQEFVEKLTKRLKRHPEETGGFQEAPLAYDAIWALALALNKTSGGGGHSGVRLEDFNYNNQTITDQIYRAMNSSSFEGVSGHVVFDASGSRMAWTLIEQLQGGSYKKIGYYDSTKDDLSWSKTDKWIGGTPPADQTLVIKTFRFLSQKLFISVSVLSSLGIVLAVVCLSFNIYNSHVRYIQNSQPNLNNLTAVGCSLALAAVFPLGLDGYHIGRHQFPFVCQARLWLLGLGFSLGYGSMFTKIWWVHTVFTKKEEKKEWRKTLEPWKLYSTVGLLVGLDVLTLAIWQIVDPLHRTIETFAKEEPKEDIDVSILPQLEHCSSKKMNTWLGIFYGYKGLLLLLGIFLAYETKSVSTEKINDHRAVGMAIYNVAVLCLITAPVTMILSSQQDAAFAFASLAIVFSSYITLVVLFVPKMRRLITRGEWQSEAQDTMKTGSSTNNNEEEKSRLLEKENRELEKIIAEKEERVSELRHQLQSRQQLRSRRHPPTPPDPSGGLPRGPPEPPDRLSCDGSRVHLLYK
Chain of prejunctional GABAB receptors (H0V741 1-820 partner): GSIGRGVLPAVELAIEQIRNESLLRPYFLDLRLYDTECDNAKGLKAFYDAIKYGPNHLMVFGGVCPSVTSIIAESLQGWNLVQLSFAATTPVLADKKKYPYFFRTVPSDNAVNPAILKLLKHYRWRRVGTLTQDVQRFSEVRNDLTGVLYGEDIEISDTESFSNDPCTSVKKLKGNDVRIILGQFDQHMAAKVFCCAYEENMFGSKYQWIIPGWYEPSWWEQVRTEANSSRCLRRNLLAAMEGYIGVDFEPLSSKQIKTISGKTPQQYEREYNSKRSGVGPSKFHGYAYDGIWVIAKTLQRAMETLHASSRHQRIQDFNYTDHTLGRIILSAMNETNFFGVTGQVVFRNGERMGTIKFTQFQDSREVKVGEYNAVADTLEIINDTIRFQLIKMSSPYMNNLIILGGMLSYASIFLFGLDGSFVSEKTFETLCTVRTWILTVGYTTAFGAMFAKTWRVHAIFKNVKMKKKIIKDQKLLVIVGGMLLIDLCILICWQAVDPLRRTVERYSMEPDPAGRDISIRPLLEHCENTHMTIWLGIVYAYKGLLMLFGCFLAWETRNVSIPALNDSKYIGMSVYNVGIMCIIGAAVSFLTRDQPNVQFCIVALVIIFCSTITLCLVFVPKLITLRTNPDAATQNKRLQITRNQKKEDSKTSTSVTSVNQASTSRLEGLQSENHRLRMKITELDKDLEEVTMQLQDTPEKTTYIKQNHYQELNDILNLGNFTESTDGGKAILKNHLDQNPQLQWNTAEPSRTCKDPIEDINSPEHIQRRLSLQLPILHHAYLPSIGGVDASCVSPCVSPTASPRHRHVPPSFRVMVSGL

At GABAB receptors (setting [5]), `O=C(O)CC1CNCCO1` (stereo not drawn) gave an IC50 of 50 µM. Moreover, the inhibition at 100 µM in series [1] (100 μM) came to 59%. Also, the inhibition at 300 µM in series [1] was found to be 46%.

The compound `CC1CNCC(CC(=O)O)S1` (stereo not drawn) registered a 50% inhibitory concentration (IC50) at GABAB receptors (setting [5]) above 100 µM. The inhibition at 100 µM in series [1] (100 μM) stood at 21%.

As for `CC[C@@H]1CO[C@H](CC(=O)O)CN1`, the IC50 at GABAB receptors (setting [5]) was determined as 100 µM. Moreover, the inhibition at 100 µM in series [1] (100 μM) was determined as 50%.

In turn, `CC[C@H]1CO[C@H](CC(=O)O)CN1` displayed an IC50 on GABAB receptors (setting [5]) above 100 µM. In series [1] (100 μM), the inhibition at 100 µM came out at 17%.

`CC1(C)COC(CP(C)(=O)O)CN1` (stereo not drawn) came in with an IC50 on GABAB receptors (setting [5]) of 2 µM. In series [1], the IC30 stood at 1.9 µM. Besides, the inhibition at 100 µM in series [1] (100 μM) was determined as 100%.

`CP(=O)(O)CC1CNC2(CCCC2)CO1` (stereo not drawn) came in with an IC50 at GABAB receptors (setting [5]) of 3 µM. In addition, the IC30 in series [1] was 3.3 µM.

`C[C@H]1CS[C@@H](CC(=O)O)CN1` (relative stereo) [Example 13B] came in with an IC50 at GABAB receptors (setting [5]) of 60 µM. Further, the inhibition at 100 µM in series [1] (100 μM) was determined as 55%.

Take `C[C@@H]1CS[C@@H](CC(=O)O)CN1` (relative stereo) [Example 13C]: the IC50 at GABAB receptors (setting [5]) stood at 20 µM. Also, in series [1] (100 μM), the inhibition at 100 µM turned out to be 81%. For the same compound, the inhibition at 300 µM in series [1] stood at 88%.

`C[C@@H]1CO[C@@H](CC(=O)O)CN1` (relative stereo) [Example 14A]: the IC50 on GABAB receptors (setting [5]) came out at 30 µM. In addition, the inhibition at 100 µM in series [1] (100 μM) was determined as 63%. Further, the inhibition at 300 µM in series [1] was found to be 75%.

`C[C@H]1CO[C@@H](CC(=O)O)CN1` (relative stereo) [Example 14] displayed an IC50 on GABAB receptors (setting [5]) of 20 µM. Further, the inhibition at 100 µM in series [1] (100 μM) was determined as 74%. The inhibition at 300 µM in series [1] stood at 95%.

As to `CC[C@]1(CO)CO[C@@H](CC(=O)O)CN1` (relative stereo) [Example 18], the IC50 on GABAB receptors (setting [5]) came out at 100 ± 40 µM. In addition, in series [1] (100 μM), the inhibition at 100 µM was found to be 50%.

`CC[C@@]1(CO)CO[C@@H](CC(=O)O)CN1` (relative stereo) [Example 19] yielded an IC50 on GABAB receptors (setting [5]) of 19 ± 10 µM. Also, the inhibition at 100 µM in series [1] (100 μM) was determined as 90%. For the same compound, in series [1], the inhibition at 300 µM was 99%.

`C[C@]1(CO)CO[C@@H](CC(=O)O)CN1` (relative stereo) [Example 20]: the IC50 on GABAB receptors (setting [5]) was determined as 3.8 µM. In series [1] (30 μM), the inhibition at 30 µM was 24%.

On to `C[C@@]1(CO)CO[C@@H](CC(=O)O)CN1` (relative stereo) [Example 21], for which the IC30 in series [1] came out at 0.85 µM.

`CC1(C)COC(CC(=O)O)CN1` (single isomer, unassigned) [Example 6B] gave an IC50 on GABAB receptors (setting [5]) above 100 µM. The “In Vitro % inhibition” value in series [1] (100 μM) worked out at 8%. Moreover, the inhibition at 300 µM in series [1] amounted to 42%.

Turning to `NCC(O)(CS(=O)(=O)O)c1ccc(Cl)cc1` (stereo not drawn) [2-hydroxy saclofen], the GABAB receptor affinity entry with GABAB was “low affinity”.

For the compound `NCC(CC(=O)O)c1ccc(Cl)cc1` (stereo not drawn) [Baclofen, reference compound], the Inhibition of ventilation is recorded as 44-60% in series [2] and 82 ± 5% in series [3].

Regarding `CCOC(OCC)P(=O)(O)CCCN` [CGP 35348, 3-aminopropyl(diethoxymethyl)phosphinic acid], the GABAB receptor affinity entry in the series with GABAB was “low receptor affinity (comparable to 2-hydroxy saclofen)”. Also, the “Penetration of the blood/brain barrier” value in series [4] is given as “can penetrate the blood/brain barrier”.

On GABAB receptors (setting [5]), `CC1(C)COC(CC(=O)O)CN1` (stereo not drawn) [Example 2] came in with an IC50 of 6 µM. In addition, in series [1], the IC30 was found to be 1.5 µM and the inhibition at 300 µM came to 100%. In series [1] (100 μM), the inhibition at 100 µM turned out to be 96%.

In the case of `O=C(O)CC1CNC2(CC2)CO1` (stereo not drawn) [Example 9A], at GABAB receptors (setting [5]), the IC50 was 37 ± 12 µM. For the same compound, the inhibition at 100 µM in series [1] (100 μM) stood at 76%.

Turning to `O=C(O)CC1CNC2(CCCC2)CO1` (stereo not drawn) [Example 9], at GABAB receptors (setting [5]), the 50% inhibitory concentration (IC50) came out at 10 µM. Further, the inhibition at 100 µM in series [1] (100 μM) was found to be 95%. The inhibition at 300 µM in series [1] was determined as 97%.

For `CC[C@@H]1CO[C@@H](CC(=O)O)CN1` [Example 11], at GABAB receptors (setting [5]), the IC50 amounted to 14 µM. The inhibition at 100 µM in series [1] (100 μM) was 82%. For the same compound, the inhibition at 300 µM in series [1] came to 95%.

The compound `O=C(O)CC1CNCCS1` (stereo not drawn) [Example 16] had an IC50 on GABAB receptors (unit inferred) above 100 µM. In series [1] (100 μM), the inhibition at 100 µM is 44%.

Compound `CP(=O)(O)CC1CN(Cc2ccccc2)CCO1` (stereo not drawn) [Example 23] registered an IC50 on GABAB receptors (setting [5]) above 100 µM. Besides, the inhibition at 100 µM in series [1] (100 μM) is 31%.

`CP(=O)(O)CC1CNCCO1` (stereo not drawn) [Example 24] came in with an IC50 at GABAB receptors (setting [5]) of 6 µM. In addition, the inhibition at 100 µM in series [1] (100 μM) was determined as 100%. Also, the inhibition at 300 µM in series [1] was 98%.

Source of the values: US5929236A, “2-substituted morpholine and thiomorpholine derivatives as GABA-B antagonists” (Schering Corporation, priority 1995, dated 1999).
